From PMC7564829, “Potent Broad-Spectrum Antibacterial Activity of Amphiphilic Peptides against Multidrug-Resistant Bacteria” (Microorganisms, 2020)
In brackets after ≈: the same amount, converted by molar mass. Like-named read-outs stand apart in the source and are kept apart here. Ends that are not written are not given here.

Assays:
E. coli ATCC 25922 = assay: microbe, parasite or virus in culture; type: cell-based
Experimental: (§1) Experiments were performed with two biological replicates.

[1] = system: MDR E. coli B2 (mcr-1 + blaNDM-5); assay: microbe, parasite or virus in culture; type: cell-based
Experimental: as §1

[2] = system: S. aureus 215 (cfr + LZD^R); assay: microbe, parasite or virus in culture; type: cell-based; settings: 18 h
Experimental: as §1

S. aureus ATCC 29213 = assay: microbe, parasite or virus in culture; type: cell-based
Experimental: as §1

[3] = system: S. enteritidis ATCC 13076; assay: microbe, parasite or virus in culture; type: cell-based
Experimental: as §1

MRSA T144 = assay: MIC/MBC, broth micro-dilution; type: cell-based, Staphylococcus aureus
Experimental: as §1

E. coli 1F28 (tet(X4)) = assay: MIC/MBC, broth micro-dilution; type: cell-based
Experimental: as §1

E. coli B3-1 (tet(X4)) = assay: MIC/MBC, broth micro-dilution; type: cell-based
Experimental: as §1

E. faecalis A4 (VRE) = assay: MIC/MBC, broth micro-dilution; type: cell-based
Experimental: as §1

E. coli 1A34 = assay: MIC, tigecycline-resistant clinical isolate; type: cell-based
Experimental: as §1

E. coli 1C1 = assay: MIC, tigecycline-resistant clinical isolate; type: cell-based
Experimental: as §1

E. coli 1F16 = assay: MIC, tigecycline-resistant clinical isolate; type: cell-based
Experimental: as §1

E. coli 1F31 = assay: MIC, tigecycline-resistant clinical isolate; type: cell-based
Experimental: as §1

E. coli 1N28 = assay: MIC, tigecycline-resistant clinical isolate; type: cell-based
Experimental: as §1

E. coli 1N31 = assay: MIC, tigecycline-resistant clinical isolate; type: cell-based
Experimental: as §1

E. coli 2A19 = assay: MIC, tigecycline-resistant clinical isolate; type: cell-based
Experimental: as §1

E. coli 2W25 = assay: MIC, tigecycline-resistant clinical isolate; type: cell-based
Experimental: as §1

Shigella 1F25 = assay: MIC, tigecycline-resistant clinical isolate; type: cell-based; settings: Shigella 1F25, feces, broth micro-dilution
Experimental: as §1

RBCs = settings: cited from earlier work
[4] = ref [19]; cited from earlier work
Text: Antimicrobial peptides (AMPs), also named host defense peptides, are originated from various organisms and are important immune modulation molecules that protect the host from the invading pathogens. […] However, the high cost of peptides, the lability to proteases, less bioavailable and nonspecific toxicity still hinder these AMPs in clinical practice. A more rational design of AMPs contributes to improving their stability and antibacterial activity. ...

[5] = Hydrophobicity by RP-HPLC (percent acetonitrile at elution); type: physicochemical; settings: acetonitrile in water, 0.1% (v/v) TFA, higher percent = higher hydrophobicity
Experimental: All peptides used in this study were synthesized by GL Biochem (Shanghai, China) using a solid phase peptide synthesis (SPPS) method, and their accurate molecular weights were determined by matrix-assisted laser desorption/ionization time-of-flight mass spectrometry (MALDI-TOF MS). The peptide purity (>95%) and retention time were determined by reversed-phase high-performance liquid chromatography (HPLC).
A collection of tryptophan-rich linear peptides on the basis of MP196 (RWRWRW-NH2) was designed by increasing peptide length or positive charge or hydrophobicity, replacing amino acids and/or N-terminal acetylation (Table 1). These peptides were synthesized via solid-phase peptide synthesis (SPPS), purified by reverse-phase high-performance liquid chromatography (RP-HPLC) (Figure S1) and validated by matrix-assisted laser desorption/ionization time-of-flight mass spectrometry (MALDI-TOF MS) (Figure S2). […] All engineered peptides belong to cationic AMPs, with 3 or 6 net charges. The percentage of acetonitrile at RP-HPLC elution was regarded as a relative measure of peptides’ hydrophobicity. […] The hydrophobicity order was listed as follows: WRK-12 > WL-9 > WR-6 > WV-9 > KW-6 > WKK-12 > WR-12 > MP196 > WK-6.

[6] = S. aureus 215 (cfr + LZD^R), broth micro-dilution CLSI 2018, MHB, 37 °C
[7] = Escherichia coli, ATCC25922, 18 h
[8] = Staphylococcus aureus, ATCC29213, 18 h
[9] = Enterococcus faecalis, VRE, 18 h
[10] = MDR B2 (mcr-1 + blaNDM-5, 18 h)
[11] = Escherichia coli, Table 2, E. coli B2 (mcr-1 + blaNDM-5), broth micro-dilution CLSI 2018, MHB, 18 h, 37 °C, read-out: MIC
[12] = Staphylococcus aureus, MRSA T144, broth micro-dilution CLSI 2018, MHB, 18 h, 37 °C, read-out: MIC
[13] = Escherichia coli, E. coli 1F28 (tet(X4)), broth micro-dilution CLSI 2018, MHB, 18 h, 37 °C, read-out: MIC
[14] = Escherichia coli, E. coli B3-1 (tet(X4)), broth micro-dilution CLSI 2018, MHB, 18 h, 37 °C, read-out: MIC

## colistin
E. coli ATCC 25922; E. coli ATCC 25922, broth micro-dilution CLSI 2018, MHB, 18 h, 37 °C
  MIC: 0.5 µg/mL
[1]; Table 2, E. coli B2 (mcr-1 + blaNDM-5), broth micro-dilution CLSI 2018, MHB, 18 h, 37 °C
  MIC: 8 µg/mL
[2]; [6]
  MIC: 64 µg/mL
S. aureus ATCC 29213; S. aureus ATCC 29213, broth micro-dilution CLSI 2018, MHB, 18 h, 37 °C
  MIC: 16 µg/mL
[3]; S. enteritidis ATCC 13076, broth micro-dilution CLSI 2018, MHB, 18 h, 37 °C
  MIC: 0.25 µg/mL
MRSA T144; MRSA T144, broth micro-dilution CLSI 2018, MHB, 18 h, 37 °C
  MIC: 128 µg/mL
E. coli 1F28 (tet(X4)); E. coli 1F28 (tet(X4)), broth micro-dilution CLSI 2018, MHB, 18 h, 37 °C
  MIC: 0.25 µg/mL
E. coli B3-1 (tet(X4)); E. coli B3-1 (tet(X4)), broth micro-dilution CLSI 2018, MHB, 18 h, 37 °C
  MIC: 0.25 µg/mL
E. faecalis A4 (VRE); E. faecalis A4 (VRE), broth micro-dilution CLSI 2018, MHB, 18 h, 37 °C
  MIC: 128 µg/mL

## CN[C@H](CC(C)C)C(=O)N[C@H]1C(=O)N[C@@H](CC(N)=O)C(=O)N[C@H]2C(=O)N[C@H]3C(=O)N[C@H](C(=O)N[C@H](C(=O)O)c4cc(O)cc(O)c4-c4cc3ccc4O)[C@H](O)c3ccc(c(Cl)c3)Oc3cc2cc(c3O[C@@H]2O[C@H](CO)[C@@H](O)[C@H](O)[C@H]2O[C@H]2C[C@](C)(N)[C@H](O)[C@H](C)O2)Oc2ccc(cc2Cl)[C@H]1O [VAN, vancomycin]
E. coli ATCC 25922; [7]
  MIC: 128 µg/mL (≈ 88.3 µM)
[1]; Escherichia coli, 18 h
  MIC: 128 µg/mL (≈ 88.3 µM)
[2]; Staphylococcus aureus
  MIC: 1 µg/mL (≈ 0.69 µM)
S. aureus ATCC 29213; [8]
  MIC: 0.5 µg/mL (≈ 0.345 µM)
[3]; Salmonella enterica, 18 h
  MIC: 128 µg/mL (≈ 88.3 µM)
MRSA T144; Staphylococcus aureus, MRSA, 18 h
  MIC: 1 µg/mL (≈ 0.69 µM)
E. coli 1F28 (tet(X4)); Escherichia coli, 18 h
  MIC: 128 µg/mL (≈ 88.3 µM)
E. coli B3-1 (tet(X4)); Escherichia coli, 18 h
  MIC: 64 µg/mL (≈ 44.2 µM)
E. faecalis A4 (VRE); [9]
  MIC: > 128 µg/mL

## WRLRWRLRWRLR-NH2 [WR-12]
[1]; [10]
  MIC: 2 µg/mL

## WKVWKVWKV-NH2 [WV-9]
[1]; [10]
  MIC: >64 µg/mL

## CN(C)c1cc(NC(=O)CNC(C)(C)C)c(O)c2c1C[C@H]1C[C@H]3[C@H](N(C)C)C(O)=C(C(N)=O)C(=O)[C@@]3(O)C(O)=C1C2=O [TIG, tigecycline, reference compound]
E. coli ATCC 25922; [7]
  MIC: 0.125 µg/mL (≈ 0.213 µM)
[1]; [11]
  MIC: 2 µg/mL
[2]; Staphylococcus aureus
  MIC: 1 µg/mL (≈ 1.71 µM)
S. aureus ATCC 29213; [8]
  MIC: 0.125 µg/mL (≈ 0.213 µM)
[3]; Salmonella enterica, 18 h
  MIC: 0.125 µg/mL (≈ 0.213 µM)
MRSA T144; [12]
  MIC: 2 µg/mL (≈ 3.41 µM)
E. coli 1F28 (tet(X4)); [13]
  MIC: 32 µg/mL (≈ 54.6 µM)
E. coli B3-1 (tet(X4)); [14]
  MIC: 32 µg/mL (≈ 54.6 µM)
E. faecalis A4 (VRE); [9]
  MIC: 0.125 µg/mL (≈ 0.213 µM)
E. coli 1A34; Escherichia coli, E. coli 1A34, anal swab, tigecycline-resistant clinical isolate, broth micro-dilution, read-out: MIC
  MIC: 16 µg/mL (≈ 27.3 µM)
E. coli 1C1; Escherichia coli, E. coli 1C1, dust, tigecycline-resistant clinical isolate, broth micro-dilution, read-out: MIC
  MIC: 32 µg/mL (≈ 54.6 µM)
E. coli 1F16; Escherichia coli, E. coli 1F16, feces, tigecycline-resistant clinical isolate, broth micro-dilution, read-out: MIC
  MIC: > 64 µg/mL
E. coli 1F31; Escherichia coli, E. coli 1F31, tigecycline-resistant clinical isolate, broth micro-dilution, read-out: MIC
  MIC: 32 µg/mL (≈ 54.6 µM)
E. coli 1N28; Escherichia coli, E. coli 1N28, nasal swab, tigecycline-resistant clinical isolate, broth micro-dilution, read-out: MIC
  MIC: 32 µg/mL (≈ 54.6 µM)
E. coli 1N31; Escherichia coli, E. coli 1N31, tigecycline-resistant clinical isolate, broth micro-dilution, read-out: MIC
  MIC: 128 µg/mL (≈ 219 µM)
E. coli 2A19; Escherichia coli, E. coli 2A19, tigecycline-resistant clinical isolate, broth micro-dilution, read-out: MIC
  MIC: 8 µg/mL (≈ 13.7 µM)
E. coli 2W25; Escherichia coli, E. coli 2W25, water, tigecycline-resistant clinical isolate, broth micro-dilution, read-out: MIC
  MIC: 64 µg/mL (≈ 109 µM)
Shigella 1F25; read-out: MIC
  MIC: 8 µg/mL (≈ 13.7 µM)

## WRWRWR-NH2 [WR-6]
[1]; [10]
  MIC: >64 µg/mL

## CC1(C)S[C@@H]2[C@H](NC(=O)[C@H](N)c3ccccc3)C(=O)N2[C@H]1C(=O)O [AMP, ampicillin]
E. coli ATCC 25922; Escherichia coli, ATCC25922, E. coli ATCC 25922, broth micro-dilution CLSI 2018, MHB, 18 h, 37 °C, read-out: MIC
  MIC: 8 µg/mL (≈ 22.9 µM)
[1]; [11]
  MIC: > 128 µg/mL
[2]; Staphylococcus aureus
  MIC: 64 µg/mL (≈ 183 µM)
S. aureus ATCC 29213; Staphylococcus aureus, ATCC29213, S. aureus ATCC 29213, broth micro-dilution CLSI 2018, MHB, 18 h, 37 °C, read-out: MIC
  MIC: 0.25 µg/mL (≈ 0.715 µM)
[3]; Salmonella enterica, S. enteritidis ATCC 13076, broth micro-dilution CLSI 2018, MHB, 18 h, 37 °C, read-out: MIC
  MIC: 8 µg/mL (≈ 22.9 µM)
MRSA T144; [12]
  MIC: 32 µg/mL (≈ 91.6 µM)
E. coli 1F28 (tet(X4)); [13]
  MIC: > 128 µg/mL
E. coli B3-1 (tet(X4)); [14]
  MIC: > 128 µg/mL
E. faecalis A4 (VRE); Enterococcus faecalis, E. faecalis A4 (VRE), broth micro-dilution CLSI 2018, MHB, 18 h, 37 °C, read-out: MIC
  MIC: 32 µg/mL (≈ 91.6 µM)

## RWRWRW-NH2 [MP196]
[1]; [10]
  MIC: >64 µg/mL
RBCs
  hemolysis to RBCs: high hemolysis
[4]
  in vivo stability: low in vivo stability

## WKWKWK-NH2 [WK-6]
[1]; [10]
  MIC: >64 µg/mL

## Ac-WKVKWKVKWKVK-NH2 [WKK-12]
E. coli ATCC 25922; ATCC 25922, 18 h
  MIC: 128 µg/mL
[1]; [10]
  MIC: 64 µg/mL
[2]; [6]
  MIC: 64 µg/mL
S. aureus ATCC 29213; ATCC 29213, 18 h
  MIC: 128 µg/mL
[3]; ATCC 13076, 18 h
  MIC: 64 µg/mL
MRSA T144; T144, 18 h
  MIC: 64 µg/mL
E. coli 1F28 (tet(X4)); 1F28 (tet(X4, 18 h))
  MIC: 64 µg/mL
E. coli B3-1 (tet(X4)); B3-1 (tet(X4, 18 h))
  MIC: 64 µg/mL
E. faecalis A4 (VRE); A4 (VRE, 18 h)
  MIC: 64 µg/mL
E. coli 1A34; 1A34, 4 h
  MIC: 64 µg/mL
E. coli 1C1; 1C1, 4 h
  MIC: 64 µg/mL
E. coli 1F16; 1F16, 4 h
  MIC: 64 µg/mL
E. coli 1F31; 1F31, 4 h
  MIC: 64 µg/mL
E. coli 1N28; 1N28, 4 h
  MIC: 64 µg/mL
E. coli 1N31; 1N31, 4 h
  MIC: 64 µg/mL
E. coli 2A19; 2A19, 4 h
  MIC: 128 µg/mL
E. coli 2W25; 2W25, 4 h
  MIC: 64 µg/mL
Shigella 1F25
  MIC: 64 µg/mL
[5]
  H (hydrophobicity, percent of acetonitrile at HPLC elution): 31.424 percent acetonitrile

## WRLWRLWRL-NH2 [WL-9]
[1]; [10]
  MIC: 8 µg/mL

## KWKWKW-NH2 [KW-6]
[1]; [10]
  MIC: >64 µg/mL
